Legend:
Assay type in all cases: in vivo
Echinochloa crus-galli [1] = experiment: Herbicidal activity by field foliage treatment (Test example 3); set-up: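 index 0 to 10 in 10% steps of herbicidal effect with 10 meaning complete death and 0 below 10%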; details: 1000 g effective component per hectare, day 14 after the treatment
Summary of the method: (§1)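 Herbicidal effect was rated on day 14 following a foliar spray of 1000 g active ingredient per hectare, applied as water-diluted wettable powder at 1000 L/ha. Plants had been raised for 2 weeks in field soil under greenhouse conditions before spraying.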

Echinochloa oryzicola = experiment: Herbicidal activity by paddy field soil treatment (Test Example 1); set-up: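 index 0 to 10 in 10% steps of herbicidal effect with 10 meaning complete death and 0 below 10%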; details: 1000 g of effective component per hectare, evaluated on day 21 after the treatment, criteria of Table 72
Summary of the method: (§2)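 Pre-emergence paddy soil test: sown pots, 3 cm flood, water-surface application of diluted wettable powder 1 day after sowing, 1000 g a.i./ha; greenhouse; effect scored on graded scale at day 21.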

Monochoria vaginalis = experiment: as above; set-up: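 index 0 to 10 in 10% steps of herbicidal effect with 10 meaning complete death and 0 below 10%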; details: 1000 g of effective component per hectare, evaluated on day 21 after the treatment, criteria of Table 72
Summary of the method: as §2

Scirpus juncoides Rocxb. = experiment: as above; set-up: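 index 0 to 10 in 10% steps of herbicidal effect with 10 meaning complete death and 0 below 10%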; details: applied on water surface, 1000 g of effective component per hectare, day 21 after the treatment
Summary of the method: as §2

A. retroflexus [2] = experiment: Herbicidal activity by field soil treatment (Test example 2); set-up: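 index 0 to 10 in 10% steps of herbicidal effect with 10 meaning complete death and 0 below 10%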; details: 1000 g effective component per hectare, day 21 after the treatment
Summary of the method: (§3)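 Soil-surface spray after sowing; wettable powder in water, 1000 g a.i./ha at 1000 L/ha. 80 cm^2 pots, field soil, greenhouse. Visual herbicidal score on day 21.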

Echinochloa crus-galli [3] = experiment: as above; set-up: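 index 0 to 10 in 10% steps of herbicidal effect with 10 meaning complete death and 0 below 10%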; details: 1000 g effective component per hectare, day 21 after the treatment
Summary of the method: as §3

Indian millet [4] = experiment: as above; set-up: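 index 0 to 10 in 10% steps of herbicidal effect with 10 meaning complete death and 0 below 10%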; details: 1000 g effective component per hectare, day 21 after the treatment
Summary of the method: as §3

foxtail = experiment: as above; details: 1000 g effective component per hectare, day 21 after the treatment;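 also: index 0 to 10 in 10% steps of herbicidal effect with 10 meaning complete death and 0 below 10%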
Summary of the method: as §3

A. retroflexus [5] = experiment: Herbicidal activity by field foliage treatment (Test example 3); set-up: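 index 0 to 10 in 10% steps of herbicidal effect with 10 meaning complete death and 0 below 10%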; details: 1000 g effective component per hectare, day 14 after the treatment
Summary of the method: (§4)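 Post-emergence foliar spray, 2-week-old greenhouse seedlings in field soil; wettable powder in water, 1000 g a.i./ha in 1000 L/ha. Greenhouse hold, visual herbicidal rating at 14 d.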

Indian millet [6] = experiment: as above; set-up: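 index 0 to 10 in 10% steps of herbicidal effect with 10 meaning complete death and 0 below 10%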; details: 1000 g effective component per hectare, day 14 after the treatment
Summary of the method: as §4

Setaria viridis = experiment: as above; details: 1000 g effective component per hectare, day 14 after the treatment;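 also: index 0 to 10 in 10% steps of herbicidal effect with 10 meaning complete death and 0 below 10%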
Summary of the method: as §1

SMILES | herbicidal effect index, Echinochloa crus-galli (Echinochloa crus-galli [1]) | Herbicidal effects index number, Echinochloa oryzicola (Echinochloa oryzicola) | Herbicidal effects index number, Monochoria vaginalis (Monochoria vaginalis) | herbicidal effect index, S. juncoides Rocxb. (Scirpus juncoides Rocxb.) | herbicidal effect index, Amaranthus retroflexus (A. retroflexus [2]) | herbicidal effect index, Echinochloa crus-galli (Echinochloa crus-galli [3]) | herbicidal effect index, Abutilon theophrasti (Indian millet [4]) | herbicidal effect index, Setaria viridis (foxtail) | herbicidal effect index, Amaranthus retroflexus (A. retroflexus [5]) | herbicidal effect index, Abutilon theophrasti (Indian millet [6]) | herbicidal effect index, Setaria viridis (Setaria viridis)
Cn1nc(C(=O)C2=C(O)CCCC2=O)c(=O)n(-c2cccnc2Cl)c1=O [I-276] | 10 | 8 | 8 | 9 | 10 | 9 | 10 | 9 | 10 | 9 | 10
Cc1cccc(C)c1-n1c(=O)c(C(=O)C2=C(O)CCCC2=O)nn(C)c1=O [I-92] | 10 | 10 | 10 | 10 | 10 | 9 | 10 | 9 | 10 | 10 | 10
Cn1nc(C(=O)C2=C(O)CCCC2=O)c(=O)n(-c2ccccc2[N+](=O)[O-])c1=O [I-66] | 10 | 10 | 10 | 10 | 10 | 10 | 10 | 10 | 10 | 10 | 10
COCCCn1c(=O)c(C(=O)C2=C(O)CCCC2=O)nn(C)c1=O [I-41] | 10 | 8 | 8 | 10 | 10 | 9 | 8 | 7 | 10 | 10 | 10
Cn1nc(C(=O)C2=C(O)CCCC2=O)c(=O)n(-c2cccc(F)c2F)c1=O [I-77] | 10 | 10 | 10 | 10 | 10 | 9 | 10 | 9 | 10 | 10 | 10
Cn1nc(C(=O)C2=C(O)CCCC2=O)c(=O)n(N2CCOCC2)c1=O [I-202] | 9 | 10 | 10 | 10 | 10 | 10 | 9 | 9 | 9 | 9 | 9
Cn1nc(C(=O)C2=C(O)CCCC2=O)c(=O)n(-c2ccccc2C(F)(F)F)c1=O [I-63] | 10 | 10 | 10 | 10 | 10 | 10 | 10 | 10 | 10 | 10 | 10

Reference: patent US8969554B2, “6-acyl-1,2,4-triazine-3,5-dione derivative and herbicides” (Kumiai Chemical Industry Co., Ltd., priority 2010, dated 2015)
